Test results from paper PMC5863496, “Mesobuthus Venom-Derived Antimicrobial Peptides Possess Intrinsic Multifunctionality and Differential Potential as Drugs” (Frontiers in Microbiology, 2018).
Ends that are not written are not given here.

Tests used:
Test in all cases: Inhibition-zone assay (CL)
Format in all cases: cell-based
[1] = test system: Staphylococcus aureus J706; details: SA J706, N.A. = no activity at 0.8 nmol peptide each well
Procedure, shortened: (§1)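 Bacteria (~2 × 10^6 cells/ml) were seeded in 0.8% soft-agar medium (LB, Nutrient Broth or GYM) and grown at 30 or 37°C. Three peptide doses were placed in separate 2 mm wells, and inhibition zones were measured after overnight incubation. CL was calculated from the slope and intercept of a d^2 versus log n plot.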

[2] = test system: Bacillus cereus CGMCC 1.1846; details: BC CGMCC 1.1846, N.A. = no activity at 0.8 nmol peptide each well
Procedure, shortened: as §1

Escherichia coli D. J45b = details: EC D. J45b, N.A. = no activity at 0.8 nmol peptide each well
Procedure, shortened: as §1

[3] = test system: Streptomyces scabiei CGMCC 4.1765; details: SSCA CGMCC 4.1765, N.A. = no activity at 0.8 nmol peptide each well
Procedure, shortened: as §1

[4] = test system: Staphylococcus aureus J710; details: SA J710, N.A. = no activity at 0.8 nmol peptide each well
Procedure, shortened: as §1

[5] = test system: Staphylococcus aureus J708; details: SA J708, N.A. = no activity at 0.8 nmol peptide each well
Procedure, shortened: as §1

[6] = test system: Streptomyces griseus NBRC 13350; details: SG NBRC 13350, N.A. = no activity at 0.8 nmol peptide each well
Procedure, shortened: as §1

[7] = test system: Salmonella enterica ATCC 14028; details: SE ATCC 14028, N.A. = no activity at 0.8 nmol peptide each well
Procedure, shortened: as §1

[8] = test system: Pseudomonas aeruginosa 11092304; details: PA 11092304, N.A. = no activity at 0.8 nmol peptide each well
Procedure, shortened: as §1

[9] = test system: Pseudomonas aeruginosa 14; details: PA 14, N.A. = no activity at 0.8 nmol peptide each well
Procedure, shortened: as §1

[10] = test system: Alcaligenes faecalis CGMCC 1.1837; details: AF CGMCC 1.1837, N.A. = no activity at 0.8 nmol peptide each well
Procedure, shortened: as §1

[11] = test system: Pseudomonas aeruginosa QT1; details: PA QT1, N.A. = no activity at 0.8 nmol peptide each well
Procedure, shortened: as §1

[12] = test system: Pseudomonas aeruginosa 11082603; details: PA 11082603, N.A. = no activity at 0.8 nmol peptide each well
Procedure, shortened: as §1

[13] = test system: Pseudomonas aeruginosa DH; details: PA DH, N.A. = no activity at 0.8 nmol peptide each well
Procedure, shortened: as §1

[14] = test system: Pseudomonas aeruginosa O1; details: PA O1, N.A. = no activity at 0.8 nmol peptide each well
Procedure, shortened: as §1

[15] = test system: Pseudomonas aeruginosa 11092618; details: PA 11092618, N.A. = no activity at 0.8 nmol peptide each well
Procedure, shortened: as §1

[16] = test system: Saccharomyces cerevisiae CCTCC AY 92003; details: SC CCTCC AY 92003, 28°C, N.A. = no activity at 0.8 nmol peptide each well
Candida albicans 4247 = details: CA 4247, 28°C, N.A. = no activity at 0.8 nmol peptide each well
[17] = test system: Geotrichum candidum CCTCC AY 93038; details: GC CCTCC AY 93038, 28°C, N.A. = no activity at 0.8 nmol peptide each well
Candida albicans SZ56 = details: CA SZ56, 28°C, N.A. = no activity at 0.8 nmol peptide each well
Candida albicans JX1017 = details: CA JX1017, 28°C, N.A. = no activity at 0.8 nmol peptide each well
Candida albicans 4259 = details: CA 4259, 28°C, N.A. = no activity at 0.8 nmol peptide each well
Candida albicans JX1009 = details: CA JX1009, 28°C, N.A. = no activity at 0.8 nmol peptide each well
Candida albicans SZ72 = details: CA SZ72, 28°C, N.A. = no activity at 0.8 nmol peptide each well
Candida albicans 4277 = details: CA 4277, 28°C, N.A. = no activity at 0.8 nmol peptide each well

| Compound | Lethal concentration (CL) [1] | Lethal concentration (CL) [2] | Lethal concentration (CL) (Escherichia coli D. J45b) | Lethal concentration (CL) [3] | Lethal concentration (CL) [4] | Lethal concentration (CL) [5] | Lethal concentration (CL) [6] | Lethal concentration (CL) [7] | Lethal concentration (CL) [8] | Lethal concentration (CL) [9] | Lethal concentration (CL) [10] | Lethal concentration (CL) [11] | Lethal concentration (CL) [12] | Lethal concentration (CL) [13] | Lethal concentration (CL) [14] | Lethal concentration (CL) [15] | Lethal concentration (CL) [16] | Lethal concentration (CL) (Candida albicans 4247) | Lethal concentration (CL) [17] | Lethal concentration (CL) (Candida albicans SZ56) | other results |
| --- | --- | --- | --- | --- | --- | --- | --- | --- | --- | --- | --- | --- | --- | --- | --- | --- | --- | --- | --- | --- | --- |
| CC[C@H](C)[C@H](NC(=O)CN)C(=O)NCC(=O)N[C@@H](C)C(=O)N[C@H](C(=O)N[C@@H](CC(C)C)C(=O)N[C@@H](CCCCN)C(=O)N[C@H](C(=O)N[C@@H](CC(C)C)C(=O)N[C@H](C(=O)N[C@H](C(=O)NCC(=O)N[C@@H](CC(C)C)C(=O)N1CCC[C@H]1C(=O)N[C@@H](C)C(=O)N[C@@H](CC(C)C)C(=O)N[C@H](C(=O)N[C@@H](CO)C(=O)N[C@@H](Cc1c[nH]c2ccccc12)C(=O)N[C@H](C(=O)N[C@@H](CCCCN)C(=O)N[C@@H](CCCNC(=N)N)C(=O)N[C@@H](CCCCN)C(=O)N[C@@H](CCCNC(=N)N)C(=O)N[C@@H](CCC(N)=O)C(=O)N[C@@H](CCC(N)=O)C(N)=O)[C@@H](C)CC)[C@@H](C)CC)[C@@H](C)O)[C@@H](C)O)C(C)C)C(C)C [Melittin, reference compound] | 16.41 µM | 24.74 µM | 24.54 µM | 15.93 µM | 8.98 µM | 7.80 µM | 28.79 µM | 24.74 µM | – | – | – | – | – | – | – | – | – | – | – | – | – |
| FFGHLFKLATKIIPSFFRRKNQ [MAC-22] | – | – | 6.78 µM | – | – | – | – | 16.37 µM | 24.82 µM | 6.78 µM | 11.13 µM | 10.98 µM | 14.35 µM | 11.13 µM | 12.03 µM | 19.08 µM | – | – | – | – | – |
| FFGHLFKLATKIIPSLFQ [MUC-18, reference compound] | 4.86 µM | – | 22.72 µM | 4.45 µM | 5.16 µM | 6.86 µM | 31.40 µM | 35.64 µM | 31.40 µM | 31.40 µM | 18.64 µM | 18.49 µM | – | – | 41.58 µM | 31.40 µM | – | – | – | – | – |
| FFGHLFKLATKIIPSLFQRKKE [MUC-22] | – | – | 7.49 µM | – | – | – | – | 14.73 µM | 10.02 µM | 4.06 µM | 11.65 µM | 6.10 µM | 6.10 µM | 9.93 µM | 3.79 µM | 6.10 µM | – | – | – | – | – |
| FLFSLIPSAISGLINAFK-NH2 [MeuFSPL-2] | 7.04 µM | 19.57 µM | – | 7.75 µM | 7.04 µM | 6.21 µM | – | – | – | – | – | – | – | – | – | – | 11.62 µM | 7.02 µM | 24.94 µM | 14.80 µM | Lethal concentration (CL) (Candida albicans JX1017): 11.10 µM; Lethal concentration (CL) (Candida albicans 4259): 12.61 µM; Lethal concentration (CL) (Candida albicans JX1009): 11.58 µM; Lethal concentration (CL) (Candida albicans SZ72): 12.72 µM; Lethal concentration (CL) (Candida albicans 4277): 7.06 µM |
| FLFSLIPSAISGLISAFK-NH2 [MeuFSPL-1] | 10.92 µM | 15.33 µM | – | 1.77 µM | 10.92 µM | 10.92 µM | 6.81 µM | – | – | – | – | – | – | – | – | – | 25.00 µM | 15.28 µM | 17.70 µM | 21.82 µM | Lethal concentration (CL) (Candida albicans JX1017): 11.72 µM; Lethal concentration (CL) (Candida albicans 4259): 14.80 µM; Lethal concentration (CL) (Candida albicans JX1009): 15.55 µM; Lethal concentration (CL) (Candida albicans SZ72): 21.82 µM; Lethal concentration (CL) (Candida albicans 4277): 6.25 µM |
| FLFSLIPSAISGLISAFKGRRKRDLN-NH2 [MarMEL] | 8.41 µM | 6.69 µM | 6.24 µM | 1.56 µM | 8.41 µM | 4.69 µM | 5.19 µM | 1.61 µM | 24.95 µM | – | – | 14.29 µM | 8.41 µM | 14.29 µM | – | 8.41 µM | 7.72 µM | 7.04 µM | 6.34 µM | 8.49 µM | Lethal concentration (CL) (Candida albicans JX1017): 4.07 µM; Lethal concentration (CL) (Candida albicans 4259): 5.17 µM; Lethal concentration (CL) (Candida albicans JX1009): 6.49 µM; Lethal concentration (CL) (Candida albicans SZ72): 6.70 µM; Lethal concentration (CL) (Candida albicans 4277): 7.04 µM |
